# Earlier results, collected in US20240360061A1, “Synthetic Cannabinoid Compounds, Pharmaceutical Compositions, and Treatment Methods” (Miralogx LLC, priority 2022, published 2024).
# What was measured:
# [1] = 2.5 to 5 mg THC, three patients
# [2] = oral THC 15 mg; compared with salbutamol, isoprenaline
# [3] = several clinical studies
# [4] = Type-2 diabetes; cited from J. Cannabis Research (2020) 2:6
compound,measurement,setting,value
"CCCCCc1cc(O)c2c(c1)OC(C)(C)[C@@H]1CCC(C)=C[C@@H]21 [THC, tetrahydrocannabinol]",effect on pruritus due to liver diseases,[1],effective
same,anti-asthmatic (bronchodilator) effect,[2],approximately correspond to those obtained with therapeutic doses of common bronchodilator drugs
same,mood in reactive depression,[3],improvement of mood
"CCCc1cc(O)c2c(c1)OC(C)(C)[C@@H]1CCC(C)=C[C@@H]21 [THCV, Δ9-Tetrahydrocannabivarin]",Homeostasis Model Assessment (HOMA2) of pancreatic β-cell function,[4],improve
same,fasting plasma glucose,[4],significantly decrease
